Test results reported in publication PMC12598805, “Crystal Structure–Activity Relationship of Some MeO Phenylacrylonitriles: Dual Antimicrobial–Cytotoxic Effects and in Silico Perspectives” (ChemistryOpen, 2025).
Read-outs that look alike come from different tables or passages of the source.

Assays:
Format in all cases: cell-based
[1] = tested on: Enterococcus faecalis (ATCC 29212); experiment: Agar diffusion, zone of inhibition; settings: ATCC29212, E.faecalis, compounds at 50 mg mL^−1
Text: (§1) The antibacterial and antifungal activities were reported utilizing the method described by the Clinical & Laboratory Standards Institute.^[ [31], [32] ^] Agar diffusion method was used to determine the antimicrobial activity of the synthesized substances. The media used were mueller hinton agar (MHA) for bacteria and sabouraud‐dextrose agar (SDA) for fungi (Merck), as recommended by the manufacturer.
(§2) The synthesized compounds were initially investigated for their antimicrobial activity to elucidate the potential therapeutic utility against various pathogenic microbes using the agar plate diffusion method. The compounds were tested at a concentration of 50 mg mL^−1, and the antibiotics (ampicillin, kanamycin, and amphotericin B) were used at 5 mg mL^−1. […] K.pneumoniae and B.cereus were resistant to ampicillin, while they were susceptible to kanamycin with inhibition values of 30 and 26 mm, respectively. No antimicrobial activity of the compounds was observed against E.faecalis, S.typhimurium, K.pneumoniae, and for the fungus compared to Amphotericin B (20 mm). […]
Enterococcus faecalis (ATCC 29212) […]
(§3) ATCC: American Type Culture Collection; NRRL: Northern Regional Research Laboratory The compounds 2(a-c) obtained could only be completely solubilised with dimethyl sulphoxide (DMSO) and the highest possible stock solutions of 50 mg.mL-1 were prepared. To these wells 50 μl of the previously prepared substances were transferred using sterile micropipette tips. For comparison, Ampicillin and kanamycin antibiotics for bacteria and Amphotericin B antibiotics for fungus were used as positive controls and DMSO was used as negative control. The prepared petri plates were kept at +4°C for about 1 hour and then the bacterial cultures were incubated at 37°C for 18-24 hours and mould cultures at 27-30°C for 48-72 hours. The zones formed were measured millimetrically with callipers. The experiments were performed with three repetitions. […]

[2] = tested on: Micrococcus luteus (NRRL-B-1018); experiment: Agar diffusion, zone of inhibition; settings: M.luteus, compounds at 50 mg mL^−1; for zone of inhibition at 50 mg/mL: Micrococcus luteus, NRRLB1018
Text: as §1, §2
Micrococcus luteus (NRRL-B-1018) […]
as §3

[3] = tested on: human breast carcinoma (MCF‐7) cells; experiment: Cytotoxicity, CCK8 cell viability; settings: for IC50: Homo sapiens, MCF7, read-out: Cytotoxic activity IC50
Text: (§4) We investigated the cytotoxic effects of acrylonitrile derivatives 2(a–c) on human lung carcinoma (A549, CCL‐185) cells purchased from American Culture Collection and human breast carcinoma (MCF‐7) cells purchased from Republic of Turkey Ministry of Agriculture and Forestry Şap Institute, (HUKUK, 00092502), In addition, mouse fibroblast cells (L929, CCL‐1) purchased from American Culture Collection were used to observe the effects of the compounds on healthy cells. In 25 T Flask, A549 cells were grown in dulbecco's modified eagle's medium, MCF‐7, and L929 cells were grown in eagle's minimum essential medium (EMEM), 10% fetal bovine serum and 1% Penicillin‐Streptomycin at 37 °C in a 5% CO2 and 100% humidified incubator. Cell proliferation was checked every day. Cells were taken into the experiment when the cell density reached 70% to 80%. (See Supporting Information for experimental preparation of biological studies).
(§5) The compounds 2a, 2b, and 2c were dissolved in 99.8% Dimethyl sulfoxide (DMSO) respectively, as
(§6) 10 mM main stock. To prepare the doses of acrylonitrile compounds used in the experiment to be
(§7) applied to the cells, five different concentrations of 31.25; 62.5; 125; 250 and 500 μM were prepared
(§8) by diluting the main stock solutions (10 mM) with the medium selected according to the cells. 5-
(§9) Fluorouracil (5-FU) was selected as a positive control in the study. After the 5-FU main stock solution
(§10) was dissolved with DMSO to be 10 mM, the concentrations to be used were diluted with the selected
(§11) media and made ready for the experimental plan. The concentrations used for 5-FU were prepared in
(§12) the same doses used for acrylonitrile derivatives. For the negative control group, groups containing
(§13) only media and no substance were used. Prepared acrylonitrile compounds and 5-FU concentrations
(§14) were added to the wells in three replicates for each dose, and their effects on cell viability at 24 and 48
(§15) Trypan blue solution (Gibco, 1525061) was used to distinguish between living and dead cells in the
(§16) study. Trypan blue passes uncontrollably through the membrane of dead cells that have lost their cell
(§17) membrane integrity and stains the cell blue. Living cells, on the other hand, are not stained because
(§18) Live cell counts were performed using trypan blue using a
(§19) cell counter (Logos Luna II).
(§20) In order to detach the cells adhering to the flasks from the bottom, 500 μL of 0.25% Trypsin-EDTA
(§21) (Gibco, 15400054) solution was added and treated for five minutes.
(§22) detach from the bottom under an inverted microscope (Zeiss Primovert, Germany), medium containing
(§23) 10% FBS was added. After centrifugation at 300 g for 5 minutes and discarding the medium, 1 mL of
(§24) medium was added and the cells were seeded into 96-well culture dishes as 1x10^4 cells in 100 μL per
(§25) Cell Counting Kit 8 (CCK8; Medchem, 146436) was used to determine cell viability. After adding 20 μL
(§26) of CCK8 solution to each well in the dark, 96-well culture dishes were wrapped with aluminum foil and
(§27) kept in a CO2 incubator at 37 °C for 2 hr. Then, it was automatically read with a microplate reader
(§28) (Chromate) at 450 and 630 nm wavelengths. The following formula was used to determine cell
(§29) % Viability = (Sample Well−Blank) (Negative Control−Blank)×100 (1)
(§30) The half-maximal inhibitory concentration (IC50) was calculated as 50% cell death causing dose
(§31) compared to the control group. All data are given as the mean percent fraction of control ± SEM.
(§32) Statistical analysis was done by one-way analysis of variance (ANOVA), followed by Tukey’s multiple
(§33) comparison tests. IBM SPSS Statistics 22 was used to utilize statistical analysis. […]

[4] = tested on: human lung carcinoma (A549, CCL‐185) cells; experiment: Cytotoxicity, CCK8 cell viability; settings: for cell suppressive effect: concentrations of 31.25, 62.5, 125 and 250 μM; for IC50: Homo sapiens, read-out: Cytotoxic activity IC50; for suppressive effect on cell proliferation / viability: 31.25 to 500 μM
Text: as §4, §5, §6, §7, §8, §9, §10, §11, §12, §13, §14, §15, §16, §17, §18, §19, §20, §21, §22, §23, §24, §25, §26, §27, §28, §29, §30, §31, §32, §33

| SMILES | zone of inhibition at 50 mg/mL [1] [mm] | zone of inhibition [2] [mm] | zone of inhibition at 50 mg/mL [2] [mm] | IC50 ([3]; MCF‐7, 24 h) [µM] | IC50 ([3]; MCF‐7, 48 h) [µM] | decrease in cell viability ([3]; MCF‐7, 24 h, 31.25 μM) [%] | decrease in cell viability ([3]; MCF‐7, 24 h, 62.5 μM) [%] | decrease in cell viability ([3]; MCF‐7, 24 h, 125 μM) [%] | decrease in cell viability ([3]; MCF‐7, 24 h, 250 μM) [%] | decrease in cell viability ([3]; MCF‐7, 24 h, 500 μM) [%] | decrease in cell viability ([3]; MCF‐7, 48 h, 31.25 μM) [%] | decrease in cell viability ([3]; MCF‐7, 48 h, 62.5 μM) [%] | decrease in cell viability ([3]; MCF‐7, 48 h, 125 μM) [%] | decrease in cell viability ([3]; MCF‐7, 48 h, 250 μM) [%] | decrease in cell viability ([3]; MCF‐7, 48 h, 500 μM) [%] | decrease in cell viability ([4]; A549, 24 h, 500 μM) [%] | cell suppressive effect ([4]; A549, 24 h) | decrease in cell viability ([4]; A549, 48 h, 500 μM) [%] | IC50 ([4]; A549, 24 h) [µM] | IC50 ([4]; A549, 48 h) [µM] | also measured |
| --- | --- | --- | --- | --- | --- | --- | --- | --- | --- | --- | --- | --- | --- | --- | --- | --- | --- | --- | --- | --- | --- |
| COc1ccc(/C=C(\C#N)c2ccc(F)cc2)cc1 [2b] | < 6 | 14 ± 0.71 | 14 | 363 | 34 | 23 | 26 | 17 | 23 | 82 | 49 | 68 | 71 | 86 | 91 | 9 | no cell suppressive effect | 71 | > 500 | 422 | cell suppressive effect ([4]; A549, 48 h): no cell suppressive effect |
| COc1ccc(/C=C(\C#N)c2cc(C(F)(F)F)cc(C(F)(F)F)c2)cc1 [2c] | < 6 | 15 ± 0.71 | 15 | 409 | 294 | 9 | 10 | 11 | 17 | 69 | 25 | 27 | 26 | 42 | 85 | – | – | 56 | > 500 | 473 | suppressive effect on cell proliferation / viability ([4]; A549, 24 h): no suppressive effect |
| COc1ccc(C=C(C#N)c2ccccc2)cc1 [2a, 3‐(4‐methoxyphenyl)‐2‐phenylacrylonitrile] | < 6 | 14 ± 0.71 | 14 | 131 | 44 | 32 | 32 | 48 | 75 | 92 | 44 | 60 | 60 | 60 | 99 | 20 | no cell suppressive effect | 94 | > 500 | 373 | suppressive effect on cell proliferation / viability ([4]; A549, 24 h): did not show any cytotoxic activity; decrease in cell viability ([4]; A549, 48 h, 250 μM): 8% |
